The record followed here is ChEMBL document CHEMBL3352308, “Identification of constrained peptidomimetic chemotypes as HIV protease inhibitors” (Eur J Med Chem, 2014).

Test [1] has as its target Protease (Human immunodeficiency virus 1) (UniProt Q9YQ12). As to the kind of experiment: Inhibition of HIV-1 protease using DABCYL-Abu-Ser-Gln-Asn-Tyr-Pro-Ile-Val-Gln-EDANS as substrate preincubated at 10 uM for 15 mins before substrate addition measured over 15 mins by fluorometric assay.
Test [2] shares this target. As to the kind of experiment: Inhibition of HIV-1 protease using DABCYL-Abu-Ser-Gln-Asn-Tyr-Pro-Ile-Val-Gln-EDANS as substrate preincubated at 1 uM for 15 mins before substrate addition measured over 15 mins by fluorometric assay.
The target in a further test is Protease (Human immunodeficiency virus 1, UniProt Q9YQ12). As to the kind of experiment: Inhibition of HIV-1 protease using DABCYL-Abu-Ser-Gln-Asn-Tyr-Pro-Ile-Val-Gln-EDANS as substrate preincubated for 15 mins before substrate addition measured over 15 mins by fluorometric assay.
Protease, sequence (Q9YQ12 whole entry): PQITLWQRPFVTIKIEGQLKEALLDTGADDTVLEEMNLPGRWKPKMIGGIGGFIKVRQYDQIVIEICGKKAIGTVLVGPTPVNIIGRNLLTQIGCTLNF

pIC50: −log10 of the molar value.

Protease (Human immunodeficiency virus 1), sequence (Q9YQ12 as listed by the source): as the sequence (Q9YQ12 whole entry) above

In test [1], `O=C([C@@H]1O[C@@H]2O[C@H]1C(=O)N(Cc1ccccc1)[C@@H]2Cc1ccccc1)N1CCCCC1` had an inhibition of 59%.

`C[C@@H](CO)NC(=O)[C@@H]1O[C@H]2CN(Cc3ccccc3)C(=O)[C@@H]1O2`: the inhibition is 90% in test [1] and 54% in test [2]. In addition, on Protease, the pIC50 was 5.82.

`CC(C)C[C@@H](CO)NC(=O)[C@@H]1O[C@@H]2O[C@H]1C(=O)N(Cc1ccccc1)[C@@H]2Cc1ccccc1`: the inhibition in test [1] was found to be 80%.

`CNCCNC(=O)[C@@H]1O[C@@]2(c3ccccc3)CN(C(c3ccccc3)c3ccccc3)C(=O)[C@@H]1O2` showed an inhibition in test [1] of 33%.

`C#CCNC(=O)[C@@H]1O[C@@H]2O[C@H]1C(=O)N(Cc1ccccc1)[C@H]2Cc1ccccc1`: the figures for the inhibition in test [1] and in test [2] were 78% and 60%, respectively. For the same compound, at Protease, the negative logarithm of the IC50 (pIC50) is 6.15.

`CCCC[C@@H](C(=O)OC)N1C[C@H]2O[C@H](C(=O)N3CCCCC3)[C@H](O2)C1=O` yielded an inhibition in test [1] of 46%.

Consider `O=C([C@@H]1O[C@@H]2O[C@H]1C(=O)N(Cc1ccccc1)[C@H]2Cc1ccccc1)N1CCN(CCO)CC1`, for which the inhibition came to 75% in test [1] and 45% in test [2]. In addition, the pIC50 at Protease is 5.25.

As to `C[C@@H](CO)NC(=O)[C@@H]1O[C@@H]2O[C@H]1C(=O)N(Cc1ccccc1)[C@@H]2Cc1ccccc1`, the inhibition in test [1] is 81%.

In test [1], `O=C([C@H]1O[C@@H]2CN(Cc3ccccc3)C(=O)[C@H]1O2)N1CCN(CCO)CC1` gave an inhibition of 47%.

`CCCCNC(=O)[C@@H]1O[C@@H]2O[C@H]1C(=O)N(Cc1ccccc1)[C@H]2Cc1ccccc1`: the values for the inhibition in test [1] and in test [2] were 67% and 33%, respectively. Also, the pIC50 on Protease is 5.12.

As to `CNCCNC(=O)[C@@H]1O[C@@H]2O[C@H]1C(=O)N(Cc1ccccc1)[C@H]2Cc1ccccc1`, the inhibition in test [1] was 49%.

As to `COC(=O)[C@H](CC(C)C)N1C[C@@H]2O[C@@H](C(=O)N3CCN(CCc4ccccc4)CC3)[C@@H](O2)C1=O`, in test [1], the inhibition was 70%.

`CCCCNC(=O)[C@@H]1O[C@@]2(c3ccccc3)CN(C(c3ccccc3)c3ccccc3)C(=O)[C@@H]1O2` showed an inhibition in test [1] of 66%.

`O=C([C@@H]1O[C@H]2CN(Cc3ccccc3)C(=O)[C@@H]1O2)N1CCCCC1` showed an inhibition in test [1] of 21%.

In test [1], `COC(=O)[C@H](CC(C)C)N1C[C@@H]2O[C@@H](C(=O)N[C@H](CO)CC(C)C)[C@@H](O2)C1=O` gave an inhibition of 57%.

In test [1], `CC(C)C[C@H](C(=O)O)N1C[C@@H]2O[C@@H](C(=O)N3CCCCC3)[C@@H](O2)C1=O` had an inhibition of 43%.

On to `CC(C)C[C@@H](CO)NC(=O)[C@@H]1O[C@H]2CN(Cc3ccccc3)C(=O)[C@@H]1O2`, for which the inhibition in test [1] was 82%; in test [2], 55%. Further, the pIC50 against Protease was 5.59.

On to `CCCC[C@@H](C(=O)OC)N1C[C@@H]2O[C@@H](C(=O)N3CCCCC3)[C@@H](O2)C1=O`, for which the inhibition in test [1] worked out at 43%.

On to `O=C([C@@H]1O[C@@H]2O[C@H]1C(=O)N(Cc1ccccc1)[C@@H]2Cc1ccccc1)N1CCOCC1`, for which the inhibition in test [1] is 17%.

Compound `O=C(NC1CCCCC1)[C@@H]1O[C@H]2CN(Cc3ccccc3)C(=O)[C@@H]1O2` displayed an inhibition in test [1] of 34%.

`O=C(NCCc1ccccc1)[C@@H]1O[C@H]2CN(Cc3ccccc3)C(=O)[C@@H]1O2` returned an inhibition in test [1] of 31%.

Compound `O=C([C@@H]1O[C@@]2(c3ccccc3)CN(C(c3ccccc3)c3ccccc3)C(=O)[C@@H]1O2)N1CCN(CCO)CC1` yielded an inhibition in test [1] of 71%.

In the case of `CC(C)CCNC(=O)[C@@H]1O[C@@H]2O[C@H]1C(=O)N(Cc1ccccc1)[C@H]2Cc1ccccc1`, in test [1], the inhibition was found to be 75%.

For the compound `CCCNC(=O)[C@@H]1O[C@@H]2O[C@H]1C(=O)N(Cc1ccccc1)[C@H]2Cc1ccccc1`, the inhibition in test [1] was determined as 56%.

In test [1], `O=C1[C@@H]2O[C@H](CN1Cc1ccccc1)O[C@H]2C(=O)N1CCC[C@@H]1CO` displayed an inhibition of 77%.

For the compound `CC(C)C[C@@H](C(=O)O)N1C[C@@H]2O[C@@H](C(=O)N3CCCCC3)[C@@H](O2)C1=O`, in test [1], the inhibition was 63%.

In test [1], `O=C([C@@H]1O[C@@H]2O[C@H]1C(=O)N(Cc1ccccc1)[C@@H]2Cc1ccccc1)N1CCC[C@H]1CO` registered an inhibition of 58%.

Compound `O=C(NCCCO)[C@@H]1O[C@H]2CN(Cc3ccccc3)C(=O)[C@@H]1O2` yielded an inhibition in test [1] of 47%.

Regarding `CC[C@H](C)[C@@H](C(=O)OC)N1C[C@@H]2O[C@@H](C(=O)N3CCCCC3)[C@@H](O2)C1=O`, in test [1], the inhibition came to 30%.

Consider `O=C(NC1CCCCC1)[C@@H]1O[C@@H]2O[C@H]1C(=O)N(Cc1ccccc1)[C@H]2Cc1ccccc1`, for which the inhibition in test [1] amounted to 68%; in test [2] it was 69%. Besides, the pIC50 against Protease was 5.72.

In test [1], `CCOC(=O)N1CCN(C(=O)[C@@H]2O[C@H]3CN(Cc4ccccc4)C(=O)[C@@H]2O3)CC1` yielded an inhibition of 57%.

For `COC(=O)[C@H](CC(C)C)N1C[C@@H]2O[C@@H](C(=O)N3CCN(Cc4ccccc4)CC3)[C@@H](O2)C1=O`, the inhibition in test [1] came to 36%.

As to `CC(C)CC(=O)N[C@H](C(=O)N[C@H](C(=O)N[C@@H](CC(C)C)[C@@H](O)CC(=O)N[C@@H](C)C(=O)N[C@@H](CC(C)C)[C@@H](O)CC(=O)O)C(C)C)C(C)C`, the figures for the inhibition in test [1] and in test [2] were 74% and 56%, respectively.

As a reminder, the inhibition is the drop in the measured response relative to a control, in per cent. Read a low inhibition as a weak effect. The pIC50 is the IC50 on a negative log10 scale, so that one unit is a factor of ten.
